Results reported in patent publication US20220127258A1, “AROMATIC RING OR HETEROAROMATIC RING COMPOUNDS, PREPARATION METHOD THEREFOR AND MEDICAL USE THEREOF” (The National Institutes of Pharmaceutical R&D Co., Ltd., priority 2019, published 2022).

Tests used:
[1] = system: cholestasis rat induced by ANIT; test: Efficacy on the cholestasis rat model induced by 1-naphthyl isothiocyanate (ANIT); assay type: in vivo, SD rats; set-up: ALT / AST / GGT / TBA: unit not given here; conditions: for level of ALT, AST, GGT and TBA in the serum of ANIT rat (in words): 3 and 10 mg/kg/d, conclusion of Test Example 2; for ALT / AST / GGT / TBA: serum, 4 days, ANIT rat
Description: Animals: SD rats, male, 7 to 8 weeks old, weight: 220 to 240 g, purchased from Beijing Vital River Laboratory Animal Technology Co., Ltd., SPF grade, Certificate No.: SCXK (Beijing) 2016-0011, license issuing administration: Beijing Municipal Commission of Science and Technology.
Sample formulation: The compound of the present invention was added to DMSO, and dissolved completely by ultrasound. 0.5% CMC-Na was added to constant volume (DMSO: 0.5% CMC-Na=1:99), and the solution was homogenized by ultrasound for later use.
After 3 to 5 days of acclimation, the animals were divided into 20 groups according to body weight: normal group, model group, Example 8 (3 mg/kg/d, 10 mg/kg/d) group, Example 11 (3 mg/kg/d, 10 mg/kg/d) group, Example 12 (3 mg/kg/d, 10 mg/kg/d) group, Example 14 (3 mg/kg/d, 10 mg/kg/d) group, Example 20 (3 mg/kg/d, 10 mg/kg/d) group, Example 22 (3 mg/kg/d, 10 mg/kg/d) group, Example 26 (3 mg/kg/d, 10 mg/kg/d) group, Example 28 (3 mg/kg/d, 10 mg/kg/d) group, and Example 29 (3 mg/kg/d, 10 mg/kg/d) group, with 10 rats for each group. Intragastric administration was conducted with an administration volume of 10 mL/kg, once a day, for a total of 4 days. On Day 2, ANIT (1-naphthyl isothiocyanate, Macklin, purity: 98%, item number: N814658, CAS number: 551-06-4, specification: 5 g/bottle, storage conditions: 2 to 8 degrees, batch number: C10116101) with a dose of 50 mg/kg and an administration volume of 5 mL/kg was administered intragastrically once to each animal (except for animals in the normal group) 4 hours after the administration. The animals were fasted on Day 4 morning. The animals were anesthetized by isoflurane inhalation using a small animal anesthesia machine. Blood was collected from the venous plexus behind the eyeball using a capillary glass tube (about 1 ml per animal), and then left to stand for about one hour. It was centrifuged at 3500 rpm for 10 minutes to obtain the serum. ALT, AST, GGT and TBA indexes as well as the plasma concentration of the compound were determined using an AU480 automatic biochemical analysis system (BECKMAN COULTER). Liver was collected, weighed, and cutted into pieces. Normal saline was added (liver weight: normal saline=1:2), and the mixture was homogenized and freezed. The concentration of the compound in liver was determined using an ultra performance liquid chromatograph (Shimadzu, LC 30AD) and triple quadrupole mass spectrometer (AB, TQ5500).

FXR = target: T1, FXR (Homo sapiens, UniProt Q96RI1); test: FXR agonistic activity, luciferase assay; assay type: cell-based; conditions: luc2P-GAL4-HEK293 cells transfected with pBIND-FXR, 24 hours
T1 sequence (Q96RI1 262-486 limits assumed): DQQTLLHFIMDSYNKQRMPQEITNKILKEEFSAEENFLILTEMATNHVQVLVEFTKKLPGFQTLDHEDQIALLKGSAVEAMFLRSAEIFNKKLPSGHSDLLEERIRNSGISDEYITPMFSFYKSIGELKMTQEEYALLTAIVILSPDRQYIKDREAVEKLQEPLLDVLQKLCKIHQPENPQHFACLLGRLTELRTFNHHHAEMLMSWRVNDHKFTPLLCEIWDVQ
Description: The FXR agonistic activity of the compound of the present invention was evaluated using the luciferase assay.
The experimental process comprises the follows. The luc2P-GAL4-HEK293 stably transfected cell line (the cell line was established by transfecting pGL4.35 plasmid with HEK293 cells which was then subjected to Hygromycin B screening. The cell contained 9×GAL4 UAS and firefly luciferase reporter gene. The ligand-activated LBD-GAL4 DBD fusion protein can enter the nucleus to bind to 9×GAL4 UAS and activate the transcription of the downstream luciferase reporter gene) was transferred to a 96-well plate with […] per well. pBIND-FXR (Which was constructed by inserting FXR-LBD into pFN26A-BIND hRluc-neo Flexi® vector. The plasmid was 7.5 kb in size, Amp resistant, contained FXR-LBD, and can express FXR-LBD and GAL4 DBD fusion proteins) was transfected using X-tremeGENE HP transfection reagent. The ratio of plasmid to transfection reagent was 1 μg: 2 μl. The specific amount was 100 ng of plasmid and 0.2 μl of X-tremeGENE HP transfection reagent per well. The test compounds (the highest concentration of each compound was 30 μM, 3-fold dilution, a total of 10 concentrations) were added to induce the expression of luciferase. After 24 hours, the 96-well plate containing the test cells was taken out from the incubator, and placed at room temperature. Dual-Glo® Luciferase Reagent with the volume equal to the volume of the medium in the well (80 μl/well) was added to each well and mixed well. The plate was incubated at room temperature for 20 minutes to allow the cells to be fully lysed. All the liquid in the plate was transferred to a 96-well microtiter plate, and the firefly luciferin value was measured with a multi-function plate reader (manufacturer: Bio Tek (USA); model: Synergy4). Dual-Glo® a Stop & Glo® Reagent with the volume equal to the volume of the initial medium (80 μl/well) was added to each well and mixed well. The plate was incubated at room temperature for 10 minutes, and the renilla luciferin value was measured. The measurement order of renilla fluorescence should be the same as that of firefly fluorescence. Curve fitting and EC50 calculation were conducted using GraphPad Prism 5 software by nonlinear regression method. The fitting equation is: Y=Bottom+(Top−Bottom)/(1+10^((Log EC50−X)*HillSlope)), wherein EC50 refers to the semi-effective concentration, Top refers to the maximum effect, Bottom refers to the blank effect, and HillSlope refers to the slope.

[2] = Visual inspection of solubility of test sample in extracellular fluid; assay type: physicochemical; conditions: 1 nM to 1 μM in extracellular fluid pH 7.4, DMSO 0.1%
Description: Extracellular fluid: 140 mM NaCl, 3.5 mM KCl, 1 mM MgCl2, 2 mM CaCl2, 10 mM glucose, 10 mM HEPES, 1.25 mM NaH2PO4, pH=7.4 (adjusted by NaOH). The stock solution of the compound of Example 8 of the present invention (30.26 mM solution in DMSO) was successively diluted with 10 mL of extracellular fluid to obtain 0.3 μM, 1 μM, 3 μM, […], and 30 μM solutions. […] 10 mg of Cisapride was dissolved in 2066.29 μL of dimethyl sulfoxide (DMSO) to obtain a 10 mM stock solution. The Cisapride stock solution was successively diluted with dimethyl sulfoxide (DMSO) to obtain a total of 4 concentrations of 1 μM, 10 μM, 100 μM and 1 mM. Before the test, 10 μL of the diluent at each concentration was added to 10 mL of extracellular fluid to ensure that the DMSO concentration was 0.1%. The final working concentration of Cisapride was 1 nM, 10 nM, 100 nM and 1 μM.

For `O=C(O)c1cccc(-c2nnc(N3[C@@H]4CC[C@H]3C[C@@H](OCc3c(-c5ccccc5OC(F)(F)F)noc3C3CC3)C4)o2)c1` [Example 28], the “level of ALT, AST, GGT and TBA in the serum of ANIT rat (in words)” value (“level of ALT, AST, GGT and TBA” below) [1] was “significantly reduce”, the ALT ([1]; 3 mg/kg/d intragastric) was 147.1 ± 66.2 and the AST ([1]; 3 mg/kg/d intragastric) was 342.7 ± 153.6. For the same compound, the GGT ([1]; 3 mg/kg/d intragastric) was 2.3 ± 0.5, the TBA ([1]; 3 mg/kg/d intragastric) was 66.2 ± 58.4 and the ALT ([1]; 10 mg/kg/d intragastric) was 46.6 ± 12.1. For the same compound, the AST ([1]; 10 mg/kg/d intragastric) was 150.8 ± 28.7, the GGT ([1]; 10 mg/kg/d intragastric) was 1.9 ± 0.5 and the TBA ([1]; 10 mg/kg/d intragastric) was 20.5 ± 6.0. For the same compound, the EC50 (FXR) was < 0.025 µM.
In the case of `O=C(O)c1ccc(-c2nnc(N3[C@@H]4CC[C@H]3C[C@@H](OCc3c(-c5ccccc5OC(F)(F)F)noc3C3CC3)C4)o2)cc1F` [Example 26], the “level of ALT, AST, GGT and TBA” value [1] is reported as “significantly reduce”, the ALT ([1]; 3 mg/kg/d intragastric) is reported as 62.2 ± 27.6 and the AST ([1]; 3 mg/kg/d intragastric) is reported as 187.7 ± 50.4. It also gave a GGT ([1]; 3 mg/kg/d intragastric) of 1.9 ± 0.8, a TBA ([1]; 3 mg/kg/d intragastric) of 23.2 ± 10.1 and an ALT ([1]; 10 mg/kg/d intragastric) of 50.0 ± 11.2. It also gave an AST ([1]; 10 mg/kg/d intragastric) of 162.3 ± 27.7, a GGT ([1]; 10 mg/kg/d intragastric) of 1.4 ± 0.7 and a TBA ([1]; 10 mg/kg/d intragastric) of 35.3 ± 13.2. It also gave an EC50 (FXR) of 0.1 to 0.5 µM.
Compound `O=C(O)c1csc(-c2nnc(N3[C@@H]4CC[C@H]3C[C@@H](OCc3c(-c5c(Cl)cccc5Cl)noc3C3CC3)C4)o2)c1` [Example 20] has an ALT ([1]; 3 mg/kg/d intragastric) of 141.5 ± 101.4, an AST ([1]; 3 mg/kg/d intragastric) of 400.2 ± 304.4 and a GGT ([1]; 3 mg/kg/d intragastric) of 2.8 ± 1.2. The TBA ([1]; 3 mg/kg/d intragastric) was 119.5 ± 124.7, the ALT ([1]; 10 mg/kg/d intragastric) was 50.9 ± 22.4 and the AST ([1]; 10 mg/kg/d intragastric) was 139.8 ± 58.4. For the same compound, the GGT ([1]; 10 mg/kg/d intragastric) was 2.6 ± 0.5, the TBA ([1]; 10 mg/kg/d intragastric) was 16.1 ± 8.0 and the EC50 (FXR) was 0.05 to 0.1 µM.
In the case of `O=C(O)c1ccc(-c2nnc(N3[C@@H]4CC[C@H]3C[C@@H](OCc3c(-c5ccccc5OC(F)(F)F)noc3C3CC3)C4)o2)c(F)c1` [Example 29], the “level of ALT, AST, GGT and TBA” value [1] is reported as “significantly reduce”, the ALT ([1]; 3 mg/kg/d intragastric) is reported as 82.0 ± 44.5 and the AST ([1]; 3 mg/kg/d intragastric) is reported as 256.0 ± 168.8. The GGT ([1]; 3 mg/kg/d intragastric) was 2.3 ± 1.1, the TBA ([1]; 3 mg/kg/d intragastric) was 51.7 ± 65.2 and the ALT ([1]; 10 mg/kg/d intragastric) was 77.8 ± 69.5. The AST ([1]; 10 mg/kg/d intragastric) was 189.4 ± 76.9, the GGT ([1]; 10 mg/kg/d intragastric) was 1.9 ± 0.4 and the TBA ([1]; 10 mg/kg/d intragastric) was 26.8 ± 13.6. The EC50 (FXR) was 0.1 to 0.5 µM.
For `O=C(O)c1ccc(-c2nnc(N3[C@@H]4CC[C@H]3C[C@@H](OCc3c(-c5c(Cl)cccc5Cl)noc3C3CC3)C4)o2)cc1F` [Example 12], the “level of ALT, AST, GGT and TBA” value [1] was “significantly reduce”, the ALT ([1]; 3 mg/kg/d intragastric) was 122.5 ± 89.7 and the AST ([1]; 3 mg/kg/d intragastric) was 314.2 ± 237.9. It also gave a GGT ([1]; 3 mg/kg/d intragastric) of 2.2 ± 0.8, a TBA ([1]; 3 mg/kg/d intragastric) of 69.0 ± 66.7 and an ALT ([1]; 10 mg/kg/d intragastric) of 54.7 ± 27.3. The AST ([1]; 10 mg/kg/d intragastric) was 139.3 ± 34.6, the GGT ([1]; 10 mg/kg/d intragastric) was 1.9 ± 0.5 and the TBA ([1]; 10 mg/kg/d intragastric) was 25.4 ± 14.3. For the same compound, the EC50 (FXR) was 0.1 to 0.5 µM.
For `COc1cc(N)c(Cl)cc1C(=O)NC1CCN(CCCOc2ccc(F)cc2)CC1OC` (centres unmarked) [Cisapride, reference compound], the “solubility, visually inspected” value [2] was “completely dissolved without visible precipitation”.
